According to patent publication EP0086757A1, “Derivatives of alpha or beta-mercaptopropionylamidoacetic acids, processes for their preparation and the therapeutic compositions which include them as active principles” (Farmatis S.r.l., priority 1982, dated 1983):
Where two headings read alike, the source gives them in different places.

Tests used:
[1] = test system: Carragenin-induce edema in hind paw of the rat; details: comparison value for a classical antiphlogistic; cited from earlier work
[2] = test system: glycopeptides of the bronchial mucus; assay: glycopeptide analysis of bronchial mucus of orally treated patients with bronchial hypersecretion; assay type: in vivo; details: comparative test, 70 mg/kg/die
[3] = test system: bronchial hypersecretion induced in rats with SO2; assay: bronchial hypersecretion induced with SO2 inhalation; assay type: in vivo; details: oral 0.5 g/kg/die for two weeks; 300 ppm SO2 two hours per day, total 90 hours; untreated 80%
Protocol: The inhalation of 300 ppm of […] for two hours per day, for a total period of 90 hours, produced bronchial obstruction in only 12% of the animals compared to the 80% produced in those not treated. […] Finally, with the rats which underwent CCl4 nebulization treatment for 10 days (5 applications, 2.minutes per day), the contemporaneous oral administration of the esters of this invention, at doses of 0.5 g/kg/die, prevented intrabronchial desquamation and reactive hyperplasia of the mucosa to the extent of 60%.

[4] = test system: rats which underwent CCl4 nebulization treatment; assay: CCl4 nebulization, bronchial mucosa protection; assay type: in vivo; details: oral 0.5 g/kg/die; CCl4 nebulization 10 days, 5 applications, 2 minutes per day
Description: Finally, with the rats which underwent CCl4 nebulization treatment for 10 days (5 applications, 2.minutes per day), the contemporaneous oral administration of the esters of this invention, at doses of 0.5 g/kg/die, prevented intrabronchial desquamation and reactive hyperplasia of the mucosa to the extent of 60%.

[5] = test system: Carragenin-induce edema in hind paw of the rat; assay: carragenin-induced hind paw edema (anti-inflammatory activity); assay type: in vivo, rats; details: oral by esophagal probe one hour before carragenin; paw volume three hours later
Protocol: The anti-inflammatory activity was investigated on rats by administering the new products,orally,using an esophagal probe. One hour after administration, a subcutaneous injection of 0.05 ml of 1% carragenin was made in the right hind paw and three hours later a plethysmometric evaluation was made of the difference in volume between the two hind paws (WINTER C.A., RISLEY E.A., NUSS G.W., Carragenin-induce edema in hind paw of the rat as an assay for anti-inflammatory drugs. Proc. Soc. Exp. Biol. Med., 111, 544 - 1962).

aerosol histaminic shock = aerosol histaminic shock (antibronchospastic activity); assay type: in vivo
Protocol: The antibronchospastic activity of the new compounds, in face, was evaluated by pretreating test animals with 2 g/kg of the new compounds, administered by way of an esophagal probe, and then submitting them to aerosol histaminic shock (histamine phosphate 1:80 at about 140 mm Eg). The time was noted between when the aerosol was given and the convulsions began. After two hours of pretreatment, times amounting to 70% of the approximately 120 seconds of the control group were obtained. […] The new compounds, therefore, provide intense and persistent protection against bronchspasm induced experimentally with histamine, in strict correlation with the anti-inflammatory activity reported previously.

acute toxicity (DL50) = assay type: in vivo
Protocol: In fact, while S-carboxymethylcysteine has a DL50 of 5.18 g/kg, the new thiolic esters' DL50 cannot be determined, i.p., since more than 5 g/kg cannot be administered; but, orally, the DL50 is above 8 g/kg, as with the S-carboymethylcysteine. The subacute, chronic and fetal toxi city was evaluated by mixing the esters with the food.

| Compound | DE50 [1] [mg/kg] | average increase in sialoglycopeptides [2] [%] | diminution of glycopeptides and mucin [2] [%] | animals with bronchial obstruction (not protected) [3] [%] | prevention of intrabronchial desquamation and reactive hyperplasia of the mucosa [4] [%] | DE50 [5] | difference between the control and tested subjects in time to convulsions (aerosol histaminic shock) | DL50 (acute toxicity (DL50); i.p. (route only implied for the comparator), more than 5 g/kg cannot be administered) [g/kg] | DL50 (acute toxicity (DL50); orally) |
| --- | --- | --- | --- | --- | --- | --- | --- | --- | --- |
| CC(=O)Oc1ccccc1C(=O)O [acetylsalicylic acid] | 100 | – | – | – | – | – | – | – | – |
| N[C@@H](CSCC(=O)O)C(=O)O [S-carboxymethylcysteine] | – | ≤ 75 | ≤ 45 | 25 | ≤ 40 | not determinable | no appreciable difference | 5.18 | above 8 g/kg |
